Data published in ChEMBL document CHEMBL1135157, “Focused library approach for identification of new N-acylphenylalanines as VCAM/VLA-4 antagonists” (Bioorg Med Chem Lett, 2002).

Legend:
[1] = Inhibition of Very late antigen 4/vascular cell adhesion molecule 1 activity in ELISA assay, at 10 nM concentration
[2] = Inhibition of Very late antigen 4/vascular cell adhesion molecule 1 inhibition activity in an ELISA assay
[3] = biological target: Integrin alpha-4/beta-1 (Homo sapiens, UniProt P05556+P13612); experiment: Inhibition of Very late antigen 4 of Ramos cell adhesion to vascular cell adhesion molecule 1; assay type: cell-based
Sequence of Integrin alpha-4/beta-1 (P05556 whole entry): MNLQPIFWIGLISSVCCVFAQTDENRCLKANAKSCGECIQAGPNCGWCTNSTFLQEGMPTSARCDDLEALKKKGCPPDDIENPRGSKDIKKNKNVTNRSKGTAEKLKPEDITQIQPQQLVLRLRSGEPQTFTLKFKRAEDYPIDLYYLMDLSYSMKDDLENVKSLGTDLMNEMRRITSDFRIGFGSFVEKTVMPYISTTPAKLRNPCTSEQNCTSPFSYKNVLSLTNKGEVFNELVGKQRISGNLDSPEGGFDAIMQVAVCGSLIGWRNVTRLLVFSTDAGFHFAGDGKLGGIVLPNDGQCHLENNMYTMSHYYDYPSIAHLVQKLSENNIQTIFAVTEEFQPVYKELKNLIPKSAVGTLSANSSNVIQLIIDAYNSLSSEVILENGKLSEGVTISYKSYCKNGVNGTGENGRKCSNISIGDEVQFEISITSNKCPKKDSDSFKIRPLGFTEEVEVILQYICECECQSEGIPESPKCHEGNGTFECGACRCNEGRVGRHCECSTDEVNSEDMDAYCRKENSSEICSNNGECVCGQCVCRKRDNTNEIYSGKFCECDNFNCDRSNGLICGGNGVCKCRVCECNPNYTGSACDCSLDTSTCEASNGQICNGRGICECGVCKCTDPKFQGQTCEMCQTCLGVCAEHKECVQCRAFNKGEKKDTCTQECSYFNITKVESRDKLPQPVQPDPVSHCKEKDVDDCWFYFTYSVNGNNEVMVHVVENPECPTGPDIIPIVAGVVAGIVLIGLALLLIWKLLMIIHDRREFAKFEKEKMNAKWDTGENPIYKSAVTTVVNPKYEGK
Sequence of Integrin alpha-4/beta-1 (P13612 whole entry): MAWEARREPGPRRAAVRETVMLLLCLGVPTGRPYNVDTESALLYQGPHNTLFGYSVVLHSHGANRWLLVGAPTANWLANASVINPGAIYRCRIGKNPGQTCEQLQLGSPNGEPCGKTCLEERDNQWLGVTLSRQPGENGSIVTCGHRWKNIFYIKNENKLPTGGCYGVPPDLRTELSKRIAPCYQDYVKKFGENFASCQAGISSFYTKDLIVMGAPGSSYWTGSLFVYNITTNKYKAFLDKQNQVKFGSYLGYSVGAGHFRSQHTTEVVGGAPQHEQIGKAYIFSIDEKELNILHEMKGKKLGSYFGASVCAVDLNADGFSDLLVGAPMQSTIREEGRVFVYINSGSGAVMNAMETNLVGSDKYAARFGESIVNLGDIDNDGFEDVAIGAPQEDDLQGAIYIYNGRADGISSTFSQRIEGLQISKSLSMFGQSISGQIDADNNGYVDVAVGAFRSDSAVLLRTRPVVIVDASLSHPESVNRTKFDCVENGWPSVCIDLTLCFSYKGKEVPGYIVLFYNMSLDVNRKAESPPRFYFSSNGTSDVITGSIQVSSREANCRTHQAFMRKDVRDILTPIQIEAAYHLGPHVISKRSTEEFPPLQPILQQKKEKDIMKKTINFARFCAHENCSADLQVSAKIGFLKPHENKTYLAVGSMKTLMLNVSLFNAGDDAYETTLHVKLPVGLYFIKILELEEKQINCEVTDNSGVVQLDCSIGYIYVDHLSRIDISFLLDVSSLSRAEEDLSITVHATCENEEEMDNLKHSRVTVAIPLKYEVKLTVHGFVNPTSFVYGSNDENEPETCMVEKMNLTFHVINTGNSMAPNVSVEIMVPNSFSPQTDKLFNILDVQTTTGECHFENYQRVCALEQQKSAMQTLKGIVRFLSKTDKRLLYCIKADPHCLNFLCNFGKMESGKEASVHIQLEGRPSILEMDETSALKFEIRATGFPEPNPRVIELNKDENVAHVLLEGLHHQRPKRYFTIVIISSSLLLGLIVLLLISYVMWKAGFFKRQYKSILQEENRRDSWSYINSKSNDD

inhibition [1]	IC50 [2]	IC50 [3]	Compound
61%	2 nM		CC(=O)N1CCC[C@H]1C(=O)N[C@@H](Cc1ccc(NC(=O)c2ccnc3ccccc23)cc1)C(=O)O
74%	2.5 nM		Cc1cccc(C)c1C(=O)N[C@@H](Cc1ccc(NC(=O)c2ccnc3ccccc23)cc1)C(=O)O
	6.1 nM	2400 nM	O=C(Nc1ccc(C[C@H](NC(=O)C2(c3ccccc3)CCCC2)C(=O)O)cc1)c1cccnc1Oc1ccccc1
67%	5.6 nM		O=C(Nc1ccc(C[C@H](NC(=O)C2(c3ccccc3)CCCCC2)C(=O)O)cc1)c1ccnc2ccccc12
69%	3 nM		CC1(C(=O)N[C@@H](Cc2ccc(NC(=O)c3ccnc4ccccc34)cc2)C(=O)O)CC1(Cl)Cl (some centres undefined)
24%			O=C(Nc1ccc(C[C@H](NC(=O)[C@@H]2CSCN2C(=O)c2ccccc2)C(=O)O)cc1)c1ccnc2ccccc12
45%			Cc1cc(C)c(C(=O)N[C@@H](Cc2ccc(NC(=O)c3ccnc4ccccc34)cc2)C(=O)O)c(C)c1
68%	2.9 nM		O=C(N[C@@H](Cc1ccc(NC(=O)c2ccnc3ccccc23)cc1)C(=O)O)c1ccccc1Cl
49%	5.8 nM		CCC(C(=O)N[C@@H](Cc1ccc(NC(=O)c2ccnc3ccccc23)cc1)C(=O)O)c1ccccc1 (some centres undefined)
37%			CC(=O)N1CSC[C@H]1C(=O)N[C@@H](Cc1ccc(NC(=O)c2ccnc3ccccc23)cc1)C(=O)O
51%	2.3 nM		C[C@H]1CC[C@@](C)(C(=O)N[C@@H](Cc2ccc(NC(=O)c3ccnc4ccccc34)cc2)C(=O)O)C1(C)C
61%	6.6 nM		O=C(N[C@@H](Cc1ccc(NC(=O)c2ccnc3ccccc23)cc1)C(=O)O)c1cccnc1Cl
18%			O=C(Nc1ccc(C[C@H](NC(=O)[C@@H]2CCCN2C(=O)c2ccccc2)C(=O)O)cc1)c1ccnc2ccccc12
	1.7 nM	98 nM	O=C(Nc1ccc(C[C@H](NC(=O)C2(c3ccccc3)CCCC2)C(=O)O)cc1)c1c(Cl)cccc1Cl
13%			O=C(N[C@@H](Cc1ccc(NC(=O)c2ccnc3ccccc23)cc1)C(=O)O)C(=O)c1ccccc1
	2.7 nM	590 nM	O=C(Nc1ccc(C[C@H](NC(=O)C2(c3ccccc3)CCCC2)C(=O)O)cc1)c1ccnc2ccccc12 (stereo in doubt; 56)
19%			O=C(N[C@@H](Cc1ccc(NC(=O)c2ccnc3ccccc23)cc1)C(=O)O)c1ccccc1
64%	7.6 nM		N#CC1(C(=O)N[C@@H](Cc2ccc(NC(=O)c3ccnc4ccccc34)cc2)C(=O)O)CCCC1
15%			O=C(Nc1ccc(C[C@H](NC(=O)C2CCc3ccccc3C2)C(=O)O)cc1)c1ccnc2ccccc12 (some centres undefined)
73%	4.6 nM		CC(C)C(C(=O)N[C@@H](Cc1ccc(NC(=O)c2ccnc3ccccc23)cc1)C(=O)O)c1ccccc1 (some centres undefined)

More lines, now with the values behind:

Compound	inhibition [1]	IC50 [2]	IC50 [3]
O=C(CCc1ccccc1)N[C@@H](Cc1ccc(NC(=O)c2ccnc3ccccc23)cc1)C(=O)O	12%		
O=C(Nc1ccc(C[C@H](NC(=O)C2CCCCC2)C(=O)O)cc1)c1ccnc2ccccc12	37%		
O=C(Nc1ccc(C[C@H](NC(=O)[C@@H]2CCCN2C(=O)CCc2ccccc2)C(=O)O)cc1)c1ccnc2ccccc12	65%	2.1 nM	
Cc1noc(C)c1C(=O)N[C@@H](Cc1ccc(NC(=O)c2ccnc3ccccc23)cc1)C(=O)O	46%		
O=C(Nc1ccc(C[C@H](NC(=O)C2(c3ccccc3)CCCC2)C(=O)O)cc1)c1nccc2ccccc12		9.8 nM	1300 nM
Cc1ccc(C2(C(=O)N[C@@H](Cc3ccc(NC(=O)c4ccnc5ccccc45)cc3)C(=O)O)CCCC2)cc1	63%	9.1 nM	
O=C(Nc1ccc(C[C@H](NC(=O)C2(c3ccc(Cl)cc3)CCCC2)C(=O)O)cc1)c1ccnc2ccccc12	53%	6.4 nM	
O=C(Nc1ccc(C[C@H](NC(=O)[C@H]2CCC(=O)N2Cc2ccccc2)C(=O)O)cc1)c1c(Cl)cccc1Cl		0.37 nM	12 nM
CC(C)(C)C(=O)N[C@@H](Cc1ccc(NC(=O)c2ccnc3ccccc23)cc1)C(=O)O	23%		
O=C(Nc1ccc(C[C@H](NC(=O)C2(c3ccccc3)CCCC2)C(=O)O)cc1)c1ccccc1		23 nM	
Cc1cccc(C(=O)N[C@@H](Cc2ccc(NC(=O)c3ccnc4ccccc34)cc2)C(=O)O)c1C	31%		
O=C(Nc1ccc(C[C@H](NC(=O)C2CC2)C(=O)O)cc1)c1ccnc2ccccc12	12%		
O=C(N[C@@H](Cc1ccc(NC(=O)c2ccnc3ccccc23)cc1)C(=O)O)c1ccccc1Br	81%	2.2 nM	
CCCCC(C)(CC)C(=O)N[C@@H](Cc1ccc(NC(=O)c2ccnc3ccccc23)cc1)C(=O)O (some centres undefined)	49%	8.2 nM	
O=C(Nc1ccc(C[C@H](NC(=O)C2(c3ccccc3)CCCC2)C(=O)O)cc1)c1ccccc1C(F)(F)F		10 nM	
Cc1cccc(C)c1C(=O)N[C@@H](Cc1ccc(NC(=O)c2c(Cl)cccc2Cl)cc1)C(=O)O		1.2 nM	81 nM

Compound	inhibition [1]	IC50 [2]	IC50 [3]
O=C(Nc1ccc(C[C@H](NC(=O)C2CCCC2)C(=O)O)cc1)c1ccnc2ccccc12	25%		
CCC(C)(C)C(=O)N[C@@H](Cc1ccc(NC(=O)c2ccnc3ccccc23)cc1)C(=O)O	30%		
O=C(Nc1ccc(C[C@H](NC(=O)C2(c3ccccc3)CCCC2)C(=O)O)cc1)c1ccnc2ccccc12 (stereo in doubt; 46) [listing 1 of 2 here]	68%		
O=C(N[C@@H](Cc1ccc(NC(=O)c2ccnc3ccccc23)cc1)C(=O)O)c1ccccc1F	42%		
O=C(Nc1ccc(C[C@H](NC(=O)C23CC4CC(CC(C4)C2)C3)C(=O)O)cc1)c1ccnc2ccccc12	72%	2.4 nM	
COc1ccc(C2(C(=O)N[C@@H](Cc3ccc(NC(=O)c4ccnc5ccccc45)cc3)C(=O)O)CCCC2)cc1	73%	1.4 nM	
O=C(Nc1ccc(C[C@H](NC(=O)C2(c3ccccc3)CC2)C(=O)O)cc1)c1ccnc2ccccc12	19%		
O=C(Nc1ccc(C[C@H](NC(=O)[C@@H]2CSCN2C(=O)CCc2ccccc2)C(=O)O)cc1)c1ccnc2ccccc12	53%	1.9 nM	
O=C(Nc1ccc(C[C@H](NC(=O)C2(c3ccccc3)CCCC2)C(=O)O)cc1)c1ccnc2ccccc12 (stereo in doubt; 46) [listing 2 of 2 here]		3.4 nM	
CC1(C)C(C(=O)N[C@@H](Cc2ccc(NC(=O)c3ccnc4ccccc34)cc2)C(=O)O)C1(C)C	33%		
O=C(N[C@@H](Cc1ccc(NC(=O)c2ccnc3ccccc23)cc1)C(=O)O)c1ccccc1[N+](=O)[O-]	73%	4.7 nM	
O=C(Nc1ccc(C[C@H](NC(=O)C2CCC2)C(=O)O)cc1)c1ccnc2ccccc12	17%		
O=C(N[C@@H](Cc1ccc(NC(=O)c2ccnc3ccccc23)cc1)C(=O)O)c1c(F)cccc1F	64%	1.7 nM	
COc1ccc(C2(C(=O)N[C@@H](Cc3ccc(NC(=O)c4ccnc5ccccc45)cc3)C(=O)O)CCCCC2)cc1	77%	1.2 nM	
CC1(C(=O)N[C@@H](Cc2ccc(NC(=O)c3ccnc4ccccc34)cc2)C(=O)O)CCCCC1	49%	7 nM	
